Data set [1] can be described thus: Physical stability study: visual inspection for crystallisation during storage. The data set is classed as physicochemical. The settings on record: conclusion from the storage study of Ioforminol/Visipaque mixtures. As to the method: Formulated Ioforminol (320 mg I/ml) and Visipaque (Iodixanol 320 mg I/ml) were filled on 100 ml glass vials in mixtures with ratios according to Table 1. The filling was performed by using a Flexicon PF5 peristaltic pump. The vials were sealed by closures comprising stoppers and overlying caps. The vials were split into two populations, one that was subjected to heat steam sterilisation at 121° C. (autoclaving) for 20 minutes and one that was used without further treatment.
The autoclaved and non-autoclaved samples of different mixtures were placed on storage at 25, 40 and 60° C. respectively. The samples were subjected to visual inspection weekly for the first 5 weeks before inspection was carried out monthly.

Data set [2] is described as follows: Dissolution temperature of ioforminol in water for injection. The settings on record: water for injection as the solvent, concentration range 270-380 mg I/ml. The data set is classed as physicochemical.

On to `CC(=O)N(CC(O)CN(C(C)=O)c1c(I)c(C(=O)NCC(O)CO)c(I)c(C(=O)NCC(O)CO)c1I)c1c(I)c(C(=O)NCC(O)CO)c(I)c(C(=O)NCC(O)CO)c1I` (centres unmarked) [Iodixanol], for which, in data set [1], the “inhibition of primary nucleation” value is on record as “potent inhibitor of primary nucleation”. In the case of `O=CN(CC(O)CN(C=O)c1c(I)c(C(=O)NCC(O)CO)c(I)c(C(=O)NCC(O)CO)c1I)c1c(I)c(C(=O)NCC(O)CO)c(I)c(C(=O)NCC(O)CO)c1I` (centres unmarked) [Ioforminol, 5-[formyl-[3-[formyl-[3,5-bis(2,3-dihydroxypropylcarbamoyl)-2,4,6-triiodophenyl]amino]-2-hydroxypropyl]amino]-N,N′-bis(2,3-dihydroxypropyl)-2,4,6-triiodobenzene-1,3-dicarboxamide], in data set [2], the dissolution temperature was ~110 °C.

For the origin of these results see patent publication US20140322139A1, “STABILIZATION OF X-RAY DIAGNOSTIC COMPOSITION” (GE HEALTHCARE AS, priority 2011, published 2014).
